{"source": "patent US20190216793A1", "about": "“COMPOSITIONS AND METHODS FOR TREATING NEGATIVE SYMPTOMS IN NON-SCHIZOPHRENIC PATIENTS” (Minerva Neurosciences, Inc., priority 2016, published 2019)", "key": {"[1]": {"assay": "QT interval association of metabolite", "assay_type": "in vivo", "settings": "supra-therapeutic levels"}, "sigma2 [2]": {"biological_target": "T1, sigma2 (Homo sapiens, UniProt Q5BJF2)", "T1 sequence (Q5BJF2 whole entry)": "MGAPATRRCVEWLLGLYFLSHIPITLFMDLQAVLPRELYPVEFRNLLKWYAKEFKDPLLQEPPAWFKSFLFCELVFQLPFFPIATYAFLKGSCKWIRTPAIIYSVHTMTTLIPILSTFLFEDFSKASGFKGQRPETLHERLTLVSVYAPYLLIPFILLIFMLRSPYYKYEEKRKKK", "assay": "in vivo functional studies", "parameters": "In vivo functional studies have established that MIN-101 is an antagonist; from tissue; host or cells: whole organism in vivo"}, "[3]": {"test_system": "patients with negative symptoms of schizophrenia", "settings": "for improvement of negative symptoms compared to placebo: 32 mg and 64 mg daily doses, 244 schizophrenic patients; for effect size, PANSS Negative Subscale score (pentagonal model), change from baseline vs placebo: schizophrenic patients"}, "sigma2 [4]": {"biological_target": "T1, sigma2", "assay": "receptor affinity", "assay_type": "binding"}, "[5]": {"biological_target": "5-hydroxytryptamine-2A (5-HT2A) (Homo sapiens, UniProt P28223)", "sequence (P28223 whole entry, species assumed)": "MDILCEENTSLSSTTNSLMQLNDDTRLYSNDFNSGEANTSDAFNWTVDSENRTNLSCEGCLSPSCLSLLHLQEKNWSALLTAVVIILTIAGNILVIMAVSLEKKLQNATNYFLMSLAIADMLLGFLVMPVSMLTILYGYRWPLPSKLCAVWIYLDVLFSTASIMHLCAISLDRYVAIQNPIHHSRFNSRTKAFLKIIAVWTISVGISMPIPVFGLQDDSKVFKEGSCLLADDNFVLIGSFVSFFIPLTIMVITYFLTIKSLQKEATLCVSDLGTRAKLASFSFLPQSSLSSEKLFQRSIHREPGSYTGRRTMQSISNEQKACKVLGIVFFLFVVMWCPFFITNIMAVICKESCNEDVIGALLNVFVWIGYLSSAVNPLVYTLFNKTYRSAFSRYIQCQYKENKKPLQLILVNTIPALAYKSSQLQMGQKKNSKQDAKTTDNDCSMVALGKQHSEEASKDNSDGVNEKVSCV", "assay": "receptor affinity", "assay_type": "binding"}, "α1-adrenergic receptors": {"test_system": "α1-adrenergic receptors", "assay": "receptor affinity", "assay_type": "binding"}, "5-HT2A receptors": {"biological_target": "T2, 5-HT2A receptors (Homo sapiens, UniProt P28223)", "T2 construct": "In vivo functional studies have established that MIN-101 is an antagonist; from tissue; host or cells: whole organism in vivo", "T2 sequence (P28223 whole entry)": "as the sequence (P28223 whole entry, species assumed) above", "assay": "in vivo functional studies"}, "dopaminergic receptors": {"test_system": "dopaminergic receptors", "assay": "receptor affinity", "assay_type": "binding"}, "muscarinic receptors": {"test_system": "muscarinic receptors", "assay": "receptor affinity", "assay_type": "binding"}, "histaminergic receptors": {"test_system": "histaminergic receptors", "assay": "receptor affinity", "assay_type": "binding"}, "cholinergic receptors": {"test_system": "cholinergic receptors", "assay": "receptor affinity", "assay_type": "binding"}}, "note": "Read-outs that look alike come from different tables or passages of the source.", "data": [{"smiles": "O=C1c2ccccc2CN1CC1CCN(CC(O)c2ccc(F)cc2)CC1", "note": "(stereo not drawn) [BFB-520]", "values": [{"measurement": "effect on QT intervals", "setting": "[1]", "value": "prolongation of QT intervals"}]}, {"smiles": "O=C(CN1CCC(CN2Cc3ccccc3C2=O)CC1)c1ccc(F)cc1", "note": "[Compound I]", "values": [{"measurement": "functional activity at sigma2 receptors", "setting": "sigma2 [2]", "value": "antagonizes sigma2 activity"}, {"measurement": "improvement of negative symptoms compared to placebo", "setting": "[3]; 12 weeks", "value": "statistically significant improvement"}, {"measurement": "affinity for sigma2", "setting": "sigma2 [4]", "value": "specific affinities"}, {"measurement": "affinity for 5-HT2A", "setting": "[5]", "value": "specific affinities"}, {"measurement": "affinity for α1-adrenergic receptors", "setting": "α1-adrenergic receptors", "value": "lower affinity levels"}]}, {"smiles": "Cl.O.O.O=C(CN1CCC(CN2Cc3ccccc3C2=O)CC1)c1ccc(F)cc1", "note": "[MIN-101, 2-{1-[2-(4-Fluorophenyl)-2-oxoethyl]piperidin-4-ylmethyl}-2,3-dihydroisoindol-1-one monohydrochloride dihydrate]", "values": [{"measurement": "functional activity at 5-HT2A receptors", "setting": "5-HT2A receptors", "value": "antagonist"}, {"measurement": "functional activity at sigma2 receptors", "setting": "sigma2 [2]", "value": "antagonist"}, {"measurement": "affinity for dopaminergic receptors", "setting": "dopaminergic receptors", "value": "very low or no affinity"}, {"measurement": "improvement of negative symptoms compared to placebo", "setting": "[3]; 12 weeks", "value": "statistically significant benefit"}, {"measurement": "effect size, PANSS Negative Subscale score (pentagonal model), change from baseline vs placebo", "setting": "[3]; 32 mg daily, 12 weeks, p≤0.023", "value": 0.45}, {"measurement": "effect size, PANSS total score vs placebo", "setting": "[3]; 32 mg daily, 12 weeks, not significant", "value": 0.35}, {"measurement": "effect size, PANSS three factors negative symptoms subscale vs placebo", "setting": "[3]; 32 mg daily, 12 weeks, p≤0.006", "value": 0.55}, {"measurement": "effect size, PANSS Negative Subscale score (pentagonal model), change from baseline vs placebo", "setting": "[3]; 64 mg daily, 12 weeks, p≤0.003", "value": 0.57}, {"measurement": "effect size, PANSS three factors negative symptoms subscale vs placebo", "setting": "[3]; 64 mg daily, 12 weeks, p≤0.001", "value": 0.70}, {"measurement": "effect size, PANSS total score vs placebo", "setting": "[3]; 64 mg daily, 12 weeks, p≤0.003", "value": 0.59}, {"measurement": "positive symptoms during the trial", "setting": "[3]; 12-week trial", "value": "remained stable"}, {"measurement": "effect on negative symptoms measured using the BNSS total score", "setting": "[3]; both doses (32 mg and 64 mg daily), 12 weeks", "value": "Improvement in negative symptoms"}, {"measurement": "incidence and types of side effects, MIN-101 group vs placebo group", "setting": "[3]; human, in vivo", "value": "did not differ significantly"}, {"measurement": "metabolic adverse effects", "setting": "[3]; human, in vivo", "value": "no metabolic adverse effects"}, {"measurement": "prolactin elevation", "setting": "[3]; human, in vivo", "value": "no prolactin elevation"}, {"measurement": "affinity for muscarinic receptors", "setting": "muscarinic receptors", "value": "very low or no affinity"}, {"measurement": "affinity for histaminergic receptors", "setting": "histaminergic receptors", "value": "very low or no affinity"}, {"measurement": "affinity for cholinergic receptors", "setting": "cholinergic receptors", "value": "very low or no affinity"}]}]}
